{"source": "patent US20220371986A1", "about": "“METHOD TO GENERATE BIOCHEMICALLY REACTIVE AMINO ACIDS” (The Regents of the University of California, priority 2019, published 2022)", "type_in_all_cases": "cell-based", "key": {"293T cells": {"system": "293T cells", "experiment": "Toxicity of FSY to 293T cells"}, "HeLa cells": {"system": "HeLa cells", "experiment": "Toxicity and cell morphology of FSY in HeLa cells"}, "E. coli": {"system": "E. coli", "experiment": "E. coli growth in presence of FSY", "settings": "1 mM FSY in growth media"}, "[1]": {"system": "HeLa-EGFP-182TAG reporter cells", "experiment": "FACS analysis of Uaa incorporation into HeLa-EGFP-182TAG reporter cells", "settings": "flow cytometry; positive control AzF with plasmid pIre-Azi3", "description": "FSY incorporation into proteins in mammalian cells was tested. HeLa-EGFP-182TAG reporter cells were transfected with plasmid pMP-FSYRS-3×tRNA, which expresses FSYRS and tRNA^Pyl genes. Wang et al, Nat. Neurosci., 10:1063-1072 (2007). Suppression of the 182TAG codon would produce full-length EGFP rendering cells fluorescent. After transfection, cells were incubated with FSY of various concentrations at 37° C. for 24 or 48 h followed by flow cytometry. Strong EGFP fluorescence was measured from cells only when FSY was added. The fluorescence intensity increased with FSY concentration and incubation time. As a positive control, p-azido-L-phenylalanine (AzF) was incorporated into reporter cells in parallel using plasmid pIre-Azi3, which is the most efficient Uaa incorporation system in mammalian cells in our hands. […] No fluorescence signal was detected when FSY was not added.\nFACS analysis of Uaa incorporation into HeLa-GFP-182TAG reporter cells: One day before transfection, 4.5×10^4 HeLa-EGFP-182TAG reporter cells (Wang et al, Nat. Neurosci., 10:1063-1072 (2007)) were seeded in a Greiner bio-one 24 well-cell culture dish containing 500 μL of DMEM media with 10% FBS, and incubated at 37° C. in a CO2 incubator. […] The cells were resuspended in 300 μL of FACS buffer (1×PBS, 2% FBS, 1 mM EDTA, 0.1% sodium azide, 0.28 μM DAPI) and analyzed by BD LSRFortessa™ cell analyzer."}}}
{"smiles": "N[C@@H](Cc1ccc(OS(=O)(=O)F)cc1)C(=O)O", "note": "[FSY, fluorosulfate-L-tyrosine]", "values": [{"measurement": "toxicity to 293T cells", "setting": "293T cells", "value": "no obvious toxicity"}, {"measurement": "toxicity to HeLa cells", "setting": "HeLa cells; FSY incubation 24 or 48 h", "value": "no obvious toxicity"}, {"measurement": "cell morphology (fluorescence confocal microscopy)", "setting": "HeLa cells; HeLa-EGFP-182TAG reporter cells in the presence of FSY", "value": "cell morphology remained normal"}, {"measurement": "cytotoxicity (E. coli growth)", "setting": "E. coli", "value": "no obvious cytotoxicity"}, {"measurement": "Uaa incorporation (EGFP fluorescence) relative to the AzF level", "setting": "[1]", "value": 76, "unit": "%"}]}
